The values below come from US9611248B2, “Chemical compounds” (Syngenta Participations AG, priority 2013, dated 2017).

In one test the test system is a variety of test species. Nature of the test: Post-emergence herbicidal activity. The format is in vivo. Also on record: key to ABUTH (Abutilon theophrasti) damage score / AMARE (Amaranthus retroflexus) damage score / ALOMY (Alopecurus myosuroides) damage score / ECHCG (Echinochloa crus-galli) damage score / ZEAMX (Zea mays) damage score / SOLNI (Solanum nigrum) damage score: 0 = no damage to plant, 5 = total damage to plant. As to conditions: rate 250 g/ha, evaluated after 13 days. The essentials:
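Damage on a 0–5 scale (5 = plant killed) was rated 13 days after treatment. Test species had been sown in standard soil and raised 8 days under glasshouse conditions of 24/16 °C, 14 h light, 65% humidity. They were then sprayed with aqueous solution from an acetone/water 50:50 formulation containing 0.5% Tween 20.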
With `COC1=C(C)C(=O)N(c2cc(C(F)(F)F)c(OCCOCc3ccccc3)cn2)C1O` (stereo not drawn) [AD81], the “ABUTH (Abutilon theophrasti) damage score” value (shortened to “ABUTH”) amounted to 5, the “ALOMY (Alopecurus myosuroides) damage score” value (“ALOMY” below) came to 2, the “AMARE (Amaranthus retroflexus) damage score” value (“AMARE” below) is recorded as 5 and the “ECHCG (Echinochloa crus-galli) damage score” value (“ECHCG” below) is listed as 2. The “SETFA (Setaria faberi) damage score” value is reported as 3 and the “ZEAMX (Zea mays) damage score” value turned out to be 1.

The same test, now with this note: rate 1000 g/ha, evaluated after 13 days.
As for `COC1=C(C)C(=O)N(c2cc(C(C)(C)C)c(-c3cccc(C#N)c3)nn2)C1O` (stereo not drawn) [BD14], the “ABUTH” value amounted to 4, the “ALOMY” value is reported as 4, the “AMARE” value is reported as 5 and the “ECHCG” value turned out to be 3. Also, the “SETFA (Setaria faberi) damage score” value turned out to be 4 and the “ZEAMX (Zea mays) damage score” value was determined as 1.

Turning to `COC1=C(C)C(=O)N(c2cc(C(F)(F)F)c(C(=O)NCc3ccccc3)cn2)C1O` (stereo not drawn) [AD98], the “ABUTH” value was found to be 5, the “ALOMY” value was found to be 4, the “AMARE” value stood at 5 and the “ECHCG” value is 4. Also, the “SETFA (Setaria faberi) damage score” value is 4 and the “ZEAMX (Zea mays) damage score” value worked out at 1.

On to `COC1=C(C)C(=O)N(c2cc(C(F)(F)F)c(-c3ccccc3[N+](=O)[O-])cn2)C1O` (stereo not drawn) [AD129], for which the “ABUTH” value is 5, the “ALOMY” value was 2, the “AMARE” value amounted to 5 and the “ECHCG” value worked out at 4. Also, the “SETFA (Setaria faberi) damage score” value is on record as 4 and the “ZEAMX (Zea mays) damage score” value is on record as 2.

With `COC1=C(C)C(=O)N(c2cc(C(F)(F)F)c(-c3ccccc3C)cn2)C1O` (stereo not drawn) [AD132], the “ABUTH” value is 5, the “ALOMY” value turned out to be 2, the “AMARE” value stood at 5 and the “ECHCG” value stood at 4. Moreover, the “SETFA (Setaria faberi) damage score” value is 5 and the “ZEAMX (Zea mays) damage score” value is 2.

With `C=CCCOc1cnc(N2C(=O)C(C)=C(OC)C2O)cc1C(F)(F)F` (stereo not drawn) [AD73], the “ABUTH” value is reported as 5, the “ALOMY” value is listed as 4, the “AMARE” value is listed as 5 and the “ECHCG” value worked out at 4. Moreover, the “SETFA (Setaria faberi) damage score” value was determined as 5 and the “ZEAMX (Zea mays) damage score” value is listed as 1.

On to `COC1=C(C)C(=O)N(c2cc(Br)ncn2)C1O` (racemic) [CD5], for which the “ABUTH” value came to 3, the “ALOMY” value amounted to 1, the “AMARE” value amounted to 4 and the “ECHCG” value was 1. The “SETFA (Setaria faberi) damage score” value was found to be 2 and the “ZEAMX (Zea mays) damage score” value is 0.

On to `CCCC1=C(Cl)C(O)N(c2cc(C(F)(F)F)ccn2)C1=O` (stereo not drawn) [AA40], for which the “ABUTH” value is reported as 2, the “ALOMY” value came to 2, the “AMARE” value is given as 4 and the “ECHCG” value was determined as 4. Moreover, the “SETFA (Setaria faberi) damage score” value is recorded as 1 and the “ZEAMX (Zea mays) damage score” value worked out at 1.

On to `COC1=C(C)C(=O)N(c2cc(C(F)(F)F)c(-c3cc(F)c(F)c(F)c3)cn2)C1O` (stereo not drawn) [AD126], for which the “ABUTH” value is on record as 5, the “ALOMY” value came out at 3, the “AMARE” value amounted to 5 and the “ECHCG” value came to 3. Moreover, the “SETFA (Setaria faberi) damage score” value is 5 and the “ZEAMX (Zea mays) damage score” value came to 1.

Consider `C=Cc1ccc(N2C(=O)C(C)=C(OC)C2O)nc1` (stereo not drawn) [AD33], for which the “ABUTH” value stood at 2, the “ALOMY” value is reported as 1, the “AMARE” value came to 1 and the “ECHCG” value came out at 3. In addition, the “SETFA (Setaria faberi) damage score” value amounted to 2 and the “ZEAMX (Zea mays) damage score” value is recorded as 0.

Consider `COC1=C(C)C(=O)N(c2cc(C(F)(F)F)c(OCC(C)C)cn2)C1O` (stereo not drawn) [AD56], for which the “ABUTH” value is reported as 5, the “ALOMY” value is given as 5, the “AMARE” value was determined as 5 and the “ECHCG” value amounted to 5. The “SETFA (Setaria faberi) damage score” value worked out at 5 and the “ZEAMX (Zea mays) damage score” value was determined as 0.

As to `COC1=C(C)C(=O)N(c2cc(C)c(-c3cc(F)c(F)c(F)c3)cn2)C1O` (stereo not drawn) [AD114], the “ABUTH” value was determined as 4, the “ALOMY” value came to 2, the “AMARE” value amounted to 5 and the “ECHCG” value stood at 1. The “SETFA (Setaria faberi) damage score” value amounted to 3 and the “ZEAMX (Zea mays) damage score” value worked out at 0.

Turning to `COC1=C(C)C(=O)N(c2ccc(C(=O)NC(C)(C)C)nn2)C1O` (stereo not drawn) [BD13], the “ABUTH” value is listed as 5, the “ALOMY” value is 5, the “AMARE” value is reported as 5 and the “ECHCG” value turned out to be 5. The “SETFA (Setaria faberi) damage score” value is listed as 5 and the “ZEAMX (Zea mays) damage score” value is on record as 4.

With `CC1=C(Cl)C(O)N(c2cc(C(F)(F)F)c(C(=O)NC(C)(C)C)cn2)C1=O` (stereo not drawn) [AA46], the “ABUTH” value is 5, the “ALOMY” value is 3, the “AMARE” value is on record as 5 and the “ECHCG” value worked out at 3. The “SETFA (Setaria faberi) damage score” value was found to be 3 and the “ZEAMX (Zea mays) damage score” value is 0.

Consider `COC1=C(C)C(=O)N(c2cc(OC(F)(F)F)ccn2)C1O` (stereo not drawn) [AD39], for which the “ABUTH” value is on record as 4, the “ALOMY” value worked out at 4, the “AMARE” value is reported as 2 and the “ECHCG” value is 4. Further, the “SETFA (Setaria faberi) damage score” value was 4 and the “ZEAMX (Zea mays) damage score” value came to 0.

Take `CCOc1cnc(N2C(=O)C(C)=C(OC)C2O)cc1C(F)(F)F` (stereo not drawn) [AD55]: the “ABUTH” value amounted to 5, the “ALOMY” value is given as 5, the “AMARE” value was found to be 5 and the “ECHCG” value is recorded as 5. Moreover, the “SETFA (Setaria faberi) damage score” value is 5 and the “ZEAMX (Zea mays) damage score” value is 3.

On to `CC1=C(Cl)C(O)N(c2cc(C)c(-c3ccsc3)cn2)C1=O` (stereo not drawn) [AA48], for which the “ABUTH” value turned out to be 4, the “ALOMY” value is given as 1, the “AMARE” value turned out to be 5 and the “ECHCG” value is listed as 3. In addition, the “SETFA (Setaria faberi) damage score” value turned out to be 4 and the “ZEAMX (Zea mays) damage score” value is 0.

On to `C=Cc1cnc(N2C(=O)C(C)=C(OC)C2O)cc1C(F)(F)F` (stereo not drawn) [AD27], for which the “ABUTH” value was found to be 5, the “ALOMY” value is on record as 4, the “AMARE” value is reported as 5 and the “ECHCG” value is recorded as 5. For the same compound, the “SETFA (Setaria faberi) damage score” value is reported as 4 and the “ZEAMX (Zea mays) damage score” value stood at 2.
